Reference: US12195745B2, “Compositions and methods for modulating transduction efficiency of adeno-associated viruses” (Massachusetts Eye and Ear Infirmary, priority 2018, dated 2025)

How the values were obtained:
Huh7 cells [1] = test: Neuraminidase inhibitor pre-treatment of Huh7 cells followed by AAV transduction (luciferase); type: cell-based, human; conditions: for effect on transduction, short pre-treatment: 1 hour pre-treatment; for effect on AAV4 entry / effect on AAV5 transduction / effect on Anc80 transduction / decrease of rh32.33 transduction: 24 hours pre-treatment, 10,000 VG/cell; for decrease of rh32.33 transduction: CMV.Luciferase.SVPA
Experimental: All luciferase transduction assays were done by seeding 10,000 cells per well in black-bottom 96 well plates overnight. When indicated, cells were pre-incubated with 200 pfu/cell of WT hAd5 (University of Pennsylvania Vector core) in D10 for two hours, then hAd5-containing medium was removed prior to transduction. Cells were transduced with either AAV at 1×10^4 VG/cell in 50 μL serum-free DMEM (AAVR rescue experiments) for 1 h at 37° C., then D10 was added to a total volume of 200 μL, or 100 μl per well of crude virus prep (chimeric, and point mutant capsid experiments) was added for 1 h at 37° C., removed, then D10 was added. Transduction levels were analyzed by luciferase assay 48 hours post-transduction.
Two days post-transduction, cell culture medium was removed and cells were lysed in 20 μL per well of 1× Reporter Lysis Buffer (Promega, Cat#), then frozen at −80° C. After thaw, ffLuc expression was measured in Relative Light Units/s on a Synergy H1 Hybrid Multi-Mode Microplate reader using 100 μL luciferin buffer [200 mM Tris pH 8, 10 mM MgCl2, 300 μM ATP, 1× Firefly Luciferase signal enhancer (Thermo Cat#16180), and 150 μg/mL D-Luciferin].
Because NEU1 is an enzyme and CTSA, also identified in the entry screen (FIG. 5C), is required for maintaining the catalytically active conformation of NEU1 (D'Azzo et al., 1982, PNAS USA, 79:4535-9; and Vinogradova et al., 1998, Biochem. J. 330(Pt 2):641-50), whether enzymatic activity of NEU1 is required for its function was tested in rh32.33 and AAV4 entry. Two different sialic acid analog neuraminidase inhibitor compounds were used, Zanamivir (von Itzstein et al., 1993, Nature, 363:418-23) and DANA (Meindl et al., 1974, Virology, 58:457-63), to do a dose response on Huh7 cells and assess the effect on entry of different AAVR dependent and AAVR independent serotypes. Two different AAVR-dependent serotypes, AAV5 and Anc80, and two AAVR-independent serotypes, rh32.33 and AAV4, were tested. Importantly, AAV4 and AAV5 were examined because both AAVs use sialic acid as an attachment factor (Kaludov et al., 2001, J. Virol., 75:6884-93; and Walters et at, 2001, J. Biol. Chem., 276:20610-6) yet differ in their AAVR dependence.
Briefly, 10,000 cells per well were plated in 96-well plates 1 day prior to inhibitor treatment. […] When indicated, control or inhibitor treated cells were treated with 50 mU/mL Neuraminidase from Vibrio cholera Type III (Sigma Aldrich, Cat#N7885) in serum-free DMEM, followed by AAV transduction as described.

Huh7 cells [2] = test: Inhibitor pre-treatment, then Neuraminidase from Vibrio cholera, then AAV transduction; type: cell-based, human; conditions: 2 mM inhibitor 24 h, then 2 h Neuraminidase from Vibrio cholera
Experimental: Briefly, 10,000 cells per well were plated in 96-well plates 1 day prior to inhibitor treatment. Cells were incubated with the indicated concentration of Zanamivir (Sigma SML0492) or DANA (EMD Millipore 252926) for 24 hours prior to transduction in a total volume of 100 μL D10. When indicated, control or inhibitor treated cells were treated with 50 mU/mL Neuraminidase from Vibrio cholera Type III (Sigma Aldrich, Cat#N7885) in serum-free DMEM, followed by AAV transduction as described.
Because NEU1 and CTSA play a role in cellular glycosylation states, confirmation was desired that the entry defect was not due to an overall alteration in glycosylation at the cell surface, leading to an attachment, defect. To do this, cells were first pre-treated for 24 h with Zanamivir or DANA, followed by treatment with a neuraminidase from Vibrio cholera to remove any sialic acid that may have accumulated at the cell surface due to NEU1 inhibition.
The indicated pre-chilled vector was then added to cells on ice, incubated for 1 hour for the vectors to undergo attachment, unbound vector was washed away using ice-cold PBS, then transduction was allowed to proceed and vector transduction assessed in the different treatment conditions by fold-change relative to untreated control cells via luciferase assay. […]

Row | Compound | effect on transduction, short pre-treatment (Huh7 cells [1]) | effect on AAV4 entry (Huh7 cells [1]) | effect on AAV5 transduction (Huh7 cells [1]) | effect on Anc80 transduction (Huh7 cells [1]) | decrease of rh32.33 transduction (Huh7 cells [1]) | reversal of rh32.33 entry inhibition after neuraminidase treatment (Huh7 cells [2])
1 | CC(=O)N[C@H]1[C@H]([C@H](O)[C@H](O)CO)OC(C(=O)O)=C[C@@H]1N=C(N)N [Zanamivir] | did not show any decrease in transduction | slightly decreased AAV4 entry | Neither of the AAVR-dependent serotypes, AAV5 or Anc80, showed a decrease in transduction | Neither of the AAVR-dependent serotypes, AAV5 or Anc80, showed a decrease in transduction | roughly ten-fold | a reversal of entry inhibition was not observed
2 | CC(=O)N[C@H]1[C@H]([C@H](O)[C@H](O)CO)OC(C(=O)O)=C[C@@H]1O [DANA] | did not show any decrease in transduction | slightly decreased AAV4 entry | Neither of the AAVR-dependent serotypes, AAV5 or Anc80, showed a decrease in transduction | Neither of the AAVR-dependent serotypes, AAV5 or Anc80, showed a decrease in transduction | roughly ten-fold | a reversal of entry inhibition was not observed
